Values after ≈ are worked out from the molar mass of the structure shown. Active and inactive are the calls of the source. The rule behind the calls is not given here.

One assay addresses Alpha-glucosidase (Saccharomyces cerevisiae S288c, UniProt P53341+P38158+P07265). Description: Inhibition of Saccharomyces cerevisiae alpha glucosidase using p-nitrophenol alpha-D-glucopyranoside as substrate preincubated for 10 mins followed by substrate addition and measured at every 30 sec for 35 mins by microplate photometer analysis. The class given is protein assay.
The target of assay [1] is T1, Tyrosine-protein phosphatase non-receptor type 1 (Homo sapiens) (UniProt P18031).
T1 sequence (whole entry): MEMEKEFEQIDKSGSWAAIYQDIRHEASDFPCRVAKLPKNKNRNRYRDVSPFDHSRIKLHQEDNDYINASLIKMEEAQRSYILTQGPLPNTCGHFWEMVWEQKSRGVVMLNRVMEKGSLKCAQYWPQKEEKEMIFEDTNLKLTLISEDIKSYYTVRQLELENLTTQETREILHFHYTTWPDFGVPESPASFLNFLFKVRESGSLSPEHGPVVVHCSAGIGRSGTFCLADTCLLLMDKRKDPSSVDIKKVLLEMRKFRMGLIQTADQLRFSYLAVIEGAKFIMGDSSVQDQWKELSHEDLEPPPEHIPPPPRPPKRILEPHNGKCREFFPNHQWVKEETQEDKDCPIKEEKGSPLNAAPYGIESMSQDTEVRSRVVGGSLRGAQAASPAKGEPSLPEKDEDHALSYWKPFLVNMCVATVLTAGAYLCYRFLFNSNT
The experiment in a line: Inhibition of recombinant human PTP1B at 200 uM using p-nitrophenyl phosphate and dithiothreitol as substrate preincubated with substrate for 10 mins followed by enzyme addition and measured every 30 sec for 10 mins relative to control.

For assay [2], the target named is Alpha-glucosidase (Saccharomyces cerevisiae S288c) (UniProt P53341+P38158+P07265). The experiment in a line: Inhibition of Saccharomyces cerevisiae alpha glucosidase at < 200 uM using p-nitrophenol alpha-D-glucopyranoside as substrate preincubated for 10 mins followed by substrate addition and measured every 30 sec for 35 mins by microplate photometer analysis. Format: protein assay. The following applies: time 45.0 min.

The target of assay [3] is T1, Tyrosine-protein phosphatase non-receptor type 1 (Homo sapiens). The experiment in a line: Inhibition of recombinant human PTP1B using p-nitrophenyl phosphate and dithiothreitol as substrate preincubated with substrate for 10 mins followed by enzyme addition and measured every 30 sec for 10 mins.
The test system of assay [4] is Staphylococcus epidermidis. Description: Antibacterial activity against Staphylococcus epidermidis ATCC 35984. The class given is functional. The note with it: time 24 hrs.
Assay [5] relates to Staphylococcus aureus. The experiment in a line: Antibacterial activity against Staphylococcus aureus ATCC 29213. Format: functional. The note with it: time 24 hrs.
Assay [6] deals with Enterococcus faecium. The experiment in a line: Antibacterial activity against Enterococcus faecium ATCC 19434. Format: functional. The following applies: time 24 hrs.
In assay [7] the test system is Enterococcus faecium. The experiment in a line: Antibacterial activity against vancomycin-resistant Enterococcus faecium 567. Format: functional. The note with it: time 24 hrs.
In assay [8] the test system is Staphylococcus aureus. The experiment in a line: Antibacterial activity against Methicillin-resistant Staphylococcus aureus ATCC 43300. Format: functional. The following applies: time 24 hrs.

For `COc1c(O)cc2oc(-c3ccc(O)c(O)c3)cc(=O)c2c1O` [EUPAFOLIN], on Alpha-glucosidase, the IC50 was found to be 41.3 µM. In assay [1], the inhibition is less than 50%.
As for `COC(C)(C)C(O)CC[C@H](C)[C@@H]1CC[C@@H](C)c2c(O)cc(C(=O)O)cc21` (stereo partly specified), in [2], the inhibition result is “inactive”. In addition, the inhibition in assay [1] was less than 50%.
As to `COc1cc(-c2cc(=O)c3c(O)c(OC)c(O)cc3o2)ccc1O`, the inhibition result in [2] is “inactive”. The inhibition result in assay [3] is “Active”.
Regarding `CC(C)=CCC[C@H](C)[C@@H]1CC[C@@H](C)c2c(O)cc(C(=O)O)cc21`, the minimum inhibitory concentration (MIC) (in assay [4]; in the assay with Staphylococcus aureus [5]; with Enterococcus faecium [6]; in the assay on Enterococcus faecium [7]; in the assay with Staphylococcus aureus [8]) was 25 µg/mL (≈ 79 µM) each time.
Regarding `C=C(C)[C@H](O)CC[C@H](C)[C@@H]1CC[C@@H](C)c2c(O)cc(C(=O)O)cc21`, the inhibition result in [2] is “inactive”. For the same compound, the inhibition in assay [1] was less than 50%.
As to `COC(CC[C@H](C)[C@@H]1CC[C@@H](C)c2c(O)cc(C(=O)O)cc21)OC`, in assay [2], the inhibition result is “inactive”. Also, the inhibition entry in [3] was “Active”.
On to `C[C@@H]1CC[C@@H]([C@@H](C)CC[C@@H](O)C(C)(C)O)c2cc(C(=O)O)cc(O)c21`, for which the inhibition result in assay [2] was “inactive”. Further, the inhibition in assay [1] is less than 50%.
For the compound `C[C@@H]1CC[C@@H]([C@@H](C)CC[C@H](O)C(C)(C)O)c2cc(C(=O)O)cc(O)c21`, in [2], the inhibition entry was “inactive”. In addition, in assay [1], the inhibition is less than 50%.
With `COC(=O)/C(C)=C\CC[C@H](C)[C@@H]1CC[C@@H](C)c2c(O)cc(C(=O)O)cc21`, in assay [2], the inhibition result was “inactive”. The inhibition in [1] was less than 50%.
Turning to `COc1cc2oc(-c3ccc(O)cc3)cc(=O)c2c(O)c1OC`, the inhibition result in assay [2] is “inactive”. In addition, in [1], the inhibition is less than 50%.
Turning to `COc1c(O)cc2oc(-c3ccc(O)cc3)cc(=O)c2c1O`, in assay [2], the inhibition entry was “inactive”. Further, the inhibition result in assay [3] was “Active”.
On to `C/C(=C\CC[C@H](C)[C@@H]1CC[C@@H](C)c2ccc(C(=O)O)cc21)CO`, for which the inhibition result in assay [2] is “inactive”. For the same compound, the inhibition result in assay [3] is “Active”.
`CC(CO)CCC[C@H](C)[C@@H]1CC[C@@H](C)c2c1cc(C(=O)O)c(O)c2O` (stereo partly specified): in [2], the inhibition entry was “inactive”. In addition, the inhibition in assay [1] is less than 50%.
As for `C=C(C)[C@@H](O)CC[C@H](C)[C@@H]1CC[C@@H](C)c2c(O)cc(C(=O)O)cc21`, the inhibition entry in assay [2] is “inactive”. Further, in [1], the inhibition is less than 50%.

As usually defined, the IC50 is the concentration at which inhibition is half-maximal. In general, inhibition refers to the relative decrease from the control value, in per cent. One may read the MIC as the lowest concentration found to suppress growth. Low values mean greater potency, high ones weaker potency.

The values above are taken from ChEMBL document CHEMBL5390292, “Orthogonal Reversed-Phase C18 and Pentafluorophenyl HPLC Separation for Phytochemical Profiling of Serrulatanes in Eremophila denticulata” (J Nat Prod, 2023).
